Test results as given in US5891462A, “Composition for transdermal administration of an estrogen” (Permatec N.V., priority 1996, dated 1999).
“And” between values parts separate entries of the source, which are not always exact repeats. Identical values can stand only once. “Also recorded” adds a separate entry of the source. Like-named read-outs stand apart in the source and are kept apart here.

What was measured:
[1] = In vitro permeation through abdominal guinea pig skin (vertical diffusion cell, HPLC); assay type: in vitro ADME; conditions: for penetration enhancement at early and late times (in words): early 8 hs, late 16, 24 hs, occlusive
From the text: FIG. 3 an apparatus "Hanson P/N 57-VC" (vertical diffusion cell) is schematically represented 3 wherein:
The term "occlusive condition" used for the experimental tests carried out with the apparatus described in FIG. 3, means that the donor chamber (2) of the diffusion is closed by the top plate (3) i.e. not in communication with the external air. On the contrary the term "non occlusive condition" means that the top plate (3) has a hole allowing the free interaction between the formulation to be tested and the external air permitting the evaporation of the volatile solvents.
Furthermore, in vitro permeation experiments through abdominal guinea pig skin was made using the diffusion chamber that is schematically shown in FIG. 3.
Female guinea pigs, 8 to 16 months of age were shaved on their abdominal skin 72 hs. before sacrifice by cervical dislocation. […] A section of full thickness abdominal skin was surgically excised and mounted between the sections of a vertical diffusion cell having 1.77 sqcm of surface area, the epidermal facing up. A given amount of the pharmaceutical formulations exemplified above were spread over the epidermal layer whilst the dermal layer contact with a solution of sodium lauryl sulfate (SDS), at 34° C.
The experiments were conducted in two different conditions: in occlusive condition with a glass stopper, which avoid the evaporating of the volatile solvents, and in non occlusive condition, whereas the stopper used allow the evaporation of the volatile solvents.

[2] = cited from earlier work; for Enhancement factor: normalized skin permeation rate with/without enhancer
[3] = Whitehead 1990; cited from earlier work
[4] = cited from earlier work
[5] = clinical; set-up: species or system postmenopausal women; conditions: human, in vivo
Procedure: The duration of the study was 3 days, thus 3 dose application were applied. Blood samples were taken at 0 h (basal value), 2, 6, 12, 24, 30, 36, 48, 54, 60, and 72 hs after the initiation of the study. Estradiol and norethindrone serum levels were determined by time-resolved fluoroimmunoassay and by enzyme immunoassay respectively.

[6] = transdermal; Balfour 1990; cited from earlier work
[7] = enhancer: Decylmethyl sulfoxide

In the case of `CCOCCOCCO` [diethylene glycol monoethyl ether], the “penetration enhancement at early and late times (in words)” value [1] is reported as “excellent penetration enhancer at late times (16, 24 hs); also recorded: good penetration enhancer for late times; also recorded: enhances the permeation rates of the hormones in the later times”.
In the case of `CCCCCCCCCCCC(=O)O` [lauric acid], the “enhancer comparison for naloxone” value ([2]; naloxone, Brian and Walters) is given as “better enhancer than lauryl alcohol”.
For `COc1ccc2c(c1)c(CC(=O)O)c(C)n2C(=O)c1ccc(Cl)cc1` [Indomethacin], the Enhancement factor ([2]; enhancer: Azone) is given as 14.49, the Enhancement factor [2, 7] is given as 15.67 and the Enhancement factor ([2]; enhancer: Propyl myristate) is given as 3.77. The Enhancement factor ([2]; enhancer: Propyl oleate) was 4.67.
In the case of `C#C[C@]1(OC(C)=O)CC[C@H]2[C@@H]3CCC4=CC(=O)CC[C@@H]4[C@H]3CC[C@@]21C` [norethindrone acetate], the “transdermal dose required to oppose estrogen hyperstimulation of the endometrium / therapeutically effective daily dose of progestin” value [3] is listed as 200 to 300 µg/day and 200 to 250 µg/day.
For `C[C@]12CCC(=O)C=C1CC[C@@H]1[C@@H]2[C@@H](O)C[C@@]2(C)[C@H]1CC[C@]2(O)C(=O)CO` [Hydrocortisone], the Enhancement factor ([2]; enhancer: Azone) is given as 61.3, the Enhancement factor [2, 7] is given as 25.23 and the Enhancement factor ([2]; enhancer: Propyl myristate) is given as 4.57. The Enhancement factor ([2]; enhancer: Propyl oleate) was 5.01.
In the case of `C[C@]12CC[C@@H]3c4ccc(O)cc4CC[C@H]3[C@@H]1CC[C@@H]2O` [Estradiol, 17-β-estradiol], the “therapeutically effective daily dose of estrogen” value ([4]; Powers 1985) is given as 40 to 50 µg/day, the “serum levels of estradiol required for clinical efficacy” value ([4]; reviewed by Powers) is given as 40 to 60 pg/mL and the Enhancement factor ([2]; enhancer: Azone) is given as 20.17. For the same compound, the Enhancement factor [2, 7] was 12.59, the Enhancement factor ([2]; enhancer: Propyl myristate) was 9.33 and the Enhancement factor ([2]; enhancer: Propyl oleate) was 14.62. The “Serum Levels of Estradiol (mean)” value [5] was 6,37 pg/ml, the concentration at 2 h ([5]; topical or ocular) was 0.0328 ng/mL and the concentration at 6 h ([5]; topical or ocular) was 0.0205 ng/mL. The concentration at 12 h ([5]; topical or ocular) was 0.0268 ng/mL, the concentration at 24 h ([5]; topical or ocular) was 0.0276 ng/mL and the concentration at 30 h ([5]; topical or ocular) was 0.0393 ng/mL. The concentration at 36 h ([5]; topical or ocular) was 0.0303 ng/mL, the concentration at 48 h ([5]; topical or ocular) was 0.0359 ng/mL and the concentration at 54 h ([5]; topical or ocular) was 0.0652 ng/mL. The concentration at 60 h ([5]; topical or ocular) was 0.0487 ng/mL, the concentration at 72 h ([5]; topical or ocular) was 0.0437 ng/mL and the “effects on gonadotrophins, vaginal epithelium, bone resorption and menopausal symptoms” value [6] was “comparable to those of oral and subcutaneous estrogens”. For the same compound, the “undesirable effects of oral estrogen on hepatic metabolism” value [6] was “avoided”.
For `CCCCCCCCCCO` [n-decanol], the “norethindrone acetate permeation enhancement (in words)” value ([1]; comparison of enhancers) was “greater”.
In the case of `CCCCCCCCCCCCO` [lauryl alcohol], the “norethindrone acetate permeation enhancement (in words)” value ([1]; comparison of enhancers) is reported as “two folds higher; also recorded: greater; also recorded: highest enhancement factor for norethindrone acetate; also recorded: most adequate enhancer” and the “penetration enhancement at early and late times (in words)” value [1] is reported as “good penetration enhancer at early time (8 hs); also recorded: good penetration enhancer for early times; also recorded: higher enhancement factor in the early times”.
In the case of `CC(=O)[C@H]1CC[C@H]2[C@@H]3CCC4=CC(=O)CC[C@]4(C)[C@H]3CC[C@]12C` [Progesterone], the Enhancement factor ([2]; enhancer: Azone) is listed as 5.96, the Enhancement factor [2, 7] is listed as 11.04 and the Enhancement factor ([2]; enhancer: Propyl myristate) is listed as 4.56. For the same compound, the Enhancement factor ([2]; enhancer: Propyl oleate) was 5.36.
For `CCCCCCCC/C=C\CCCCCCCCO` [oleyl alcohol], the “estradiol permeation enhancement (in words)” value ([1]; comparison of enhancers) was “highest enhancement factor for estradiol”.
With `C#C[C@]1(O)CC[C@H]2[C@@H]3CCC4=CC(=O)CC[C@@H]4[C@H]3CC[C@@]21C` [Norethindrone, norethindrone] the “Serum Levels of Norethindrone (mean)” value [5] was 0.093 ng/mL, the “Serum Levels of Norethindrone (mean)” value ([5]; topical or ocular, 2 h) was 1.407 ng/mL and the “Serum Levels of Norethindrone (mean)” value ([5]; topical or ocular, 6 h) was 1.394 ng/mL. For the same compound, the “Serum Levels of Norethindrone (mean)” value ([5]; topical or ocular, 12 h) was 1.908 ng/mL, the “Serum Levels of Norethindrone (mean)” value ([5]; topical or ocular, 24 h) was 2.695 ng/mL and the “Serum Levels of Norethindrone (mean)” value ([5]; topical or ocular, 30 h) was 3.461 ng/mL. For the same compound, the “Serum Levels of Norethindrone (mean)” value ([5]; topical or ocular, 36 h) was 3.096 ng/mL, the “Serum Levels of Norethindrone (mean)” value ([5]; topical or ocular, 48 h) was 3.713 ng/mL and the “Serum Levels of Norethindrone (mean)” value ([5]; topical or ocular, 54 h) was 5.61 ng/mL. For the same compound, the “Serum Levels of Norethindrone (mean)” value ([5]; topical or ocular, 60 h) was 4.904 ng/mL and the “Serum Levels of Norethindrone (mean)” value ([5]; topical or ocular, 72 h) was 4.899 ng/mL.
In the case of `CCCCCCCCCC(=O)O` [decanoic acid], the “enhancement for estradiol by fatty acids” value ([2]; estradiol, U.S. Pat. No. 5,145,682) is given as “better enhancer for estradiol”.
For `CCCCCC(=O)O` [caproic acid], the “enhancement of skin permeation of progesterone by fatty acids” value ([2]; progesterone, saturated fatty acid chain length, Chien) is listed as “major enhancement effect”.
